Where “and” joins values, the source holds several entries; their conditions need not be identical. Equal entries are not always repeated. Where two headings read alike, the source gives them in different places.
How the values were obtained:
A549 cell line = assay: In vitro cytotoxic activity, MTT method, A549; conditions: Homo sapiens, read-out: IC50 ± SD
Method in brief: (§1)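 MTT assay: cells seeded at 10^5 cells/mL, grown 24 h at 37 °C to a monolayer, then exposed to serial tetrahydroisoquinoline concentrations at 37 °C. MTT (5 mg/mL stock) added for 1–5 h; OD read at 560 nm minus 620 nm background. Doxorubicin as positive control.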

MCF7 cell line = assay: In vitro cytotoxic activity, MTT method, MCF7; type: cell-based, human
Method in brief: as §1

WI-38 cell line = assay: Cytotoxicity on normal cell line WI-38; type: cell-based, human; conditions: for IC50: read-out: Toxicity on WI38 IC50 ± SD; for % viability: human
[1] = Cytotoxicity on normal cell line WI-38; type: cell-based, human; conditions: human, % viability
IKB kinase B = target: T1, IKB kinase B (Homo sapiens, UniProt O14920); assay: IKB kinase inhibition; type: biochemical; conditions: IκB
T1 sequence (O14920 1-756): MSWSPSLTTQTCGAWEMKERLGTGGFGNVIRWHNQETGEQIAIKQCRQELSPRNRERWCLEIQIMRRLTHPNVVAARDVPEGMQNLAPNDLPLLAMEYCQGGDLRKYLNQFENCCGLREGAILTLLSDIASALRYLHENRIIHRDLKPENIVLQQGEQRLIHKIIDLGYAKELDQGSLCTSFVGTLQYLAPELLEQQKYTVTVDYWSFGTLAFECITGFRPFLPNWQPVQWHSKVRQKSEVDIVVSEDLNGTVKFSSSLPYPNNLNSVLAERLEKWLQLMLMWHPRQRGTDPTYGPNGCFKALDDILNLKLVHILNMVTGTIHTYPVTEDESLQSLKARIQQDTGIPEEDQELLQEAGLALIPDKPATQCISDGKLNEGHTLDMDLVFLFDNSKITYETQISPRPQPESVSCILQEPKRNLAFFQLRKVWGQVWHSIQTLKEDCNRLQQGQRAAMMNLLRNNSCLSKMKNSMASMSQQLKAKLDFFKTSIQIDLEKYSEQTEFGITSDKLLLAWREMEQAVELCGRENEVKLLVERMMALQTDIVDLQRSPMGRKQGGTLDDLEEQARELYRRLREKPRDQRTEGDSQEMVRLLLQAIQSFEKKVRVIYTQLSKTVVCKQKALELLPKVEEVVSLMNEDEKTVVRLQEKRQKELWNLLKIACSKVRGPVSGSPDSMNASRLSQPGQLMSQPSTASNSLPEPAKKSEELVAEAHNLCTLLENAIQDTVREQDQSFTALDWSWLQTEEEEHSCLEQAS

With `COc1cccc2c1C(=O)c1c(O)c3c(c(O)c1C2=O)C[C@@](O)(C(=O)CO)C[C@@H]3O[C@H]1C[C@H](N)[C@H](O)[C@H](C)O1` [Doxorubicin, reference compound] the IC50 (A549 cell line) was 0.218 ± 0.005 µM, the IC50 (MCF7 cell line; Homo sapiens, MCF7, MCF7 cell line, MTT) was 0.053 ± 0.002 µM and the Toxicity % (MCF7 cell line; MCF7, 0.0487 µMol) was 48.12%. The Viability % (MCF7 cell line; MCF7, 0.0487 µMol) was 51.88%, the Toxicity % (MCF7 cell line; MCF7, 0.0975 µMol) was 52.667% and the Viability % (MCF7 cell line; MCF7, 0.0975 µMol) was 47.34%. It also gave a Toxicity % (MCF7 cell line; MCF7, 0.195 µMol) of 56.34%, a Viability % (MCF7 cell line; MCF7, 0.195 µMol) of 43.66% and a Toxicity % (MCF7 cell line; MCF7, 0.391 µMol) of 62.87%. The Viability % (MCF7 cell line; MCF7, 0.391 µMol) was 37.13%, the Toxicity % (MCF7 cell line; MCF7, 0.781 µMol) was 73.56% and the Viability % (MCF7 cell line; MCF7, 0.781 µMol) was 26.44%. For the same molecule, the Toxicity % (MCF7 cell line; MCF7, 1.562 µMol) was 80.23%, the Viability % (MCF7 cell line; MCF7, 1.562 µMol) was 19.77% and the Toxicity % (MCF7 cell line; MCF7, 3.125 µMol) was 90.87%. The Viability % (MCF7 cell line; MCF7, 3.125 µMol) was 9.13%, the Toxicity % (MCF7 cell line; MCF7, 6.25 µMol) was 93.45% and the Viability % (MCF7 cell line; MCF7, 6.25 µMol) was 6.55%. For the same molecule, the Toxicity % (MCF7 cell line; MCF7, 12.5 µMol) was 97.46%, the Viability % (MCF7 cell line; MCF7, 12.5 µMol) was 2.542% and the Toxicity % (MCF7 cell line; MCF7, 25 µMol) was 98.45%. For the same molecule, the Viability % (MCF7 cell line; MCF7, 25 µMol) was 1.556%, the IC50 (WI-38 cell line; Homo sapiens, WI-38, normal human fetal lung fibroblast WI-38) was 11.4 µM and the “Selectivity index (SI)” value (WI-38 cell line; IC50 in WI-38 / IC50 in A549) was 52 and 52.4. For the same molecule, the “% viability” value (WI-38 cell line; 1.55 µM) was 84.08%, the “% viability” value (WI-38 cell line; 3.25 µM) was 72.52% and the “% viability” value (WI-38 cell line; 12.5 µM) was 52.38%. The “% viability” value (WI-38 cell line; 25 µM) was 31.09%, the IC50 (WI-38 cell line; normal human fetal lung fibroblast WI-38) was 11.4 ± 0.37 µM and the viability at 1.55 µM [1] was 84.1%. The viability at 6.25 µM [1] was 64.5%, the viability at 12.5 µM [1] was 52.4% and the viability at 25 µM [1] was 31.1%.

With `NC(=O)Nc1sc(-c2ccc(F)cc2)cc1C(N)=O` [TPCA-1, reference compound] the “%inh” value (IKB kinase B; conc 0.01 (log -2)) was 32.5%, the “%inh” value (IKB kinase B; conc 0.1 (log -1)) was 53.6% and the “%inh” value (IKB kinase B; conc 1 (log 0)) was 71.3%. For the same molecule, the “%inh” value (IKB kinase B; conc 10 (log 1)) was 88.6% and the “%inh” value (IKB kinase B; conc 100 (log 2)) was 95.2%.

Reference: article PMC10873978, “Novel tetrahydroisoquinolines as DHFR and CDK2 inhibitors: synthesis, characterization, anticancer activity and antioxidant properties” (BMC Chemistry, 2024)
